Several values for one entry are separate records, joined by “and”; a condition that tells them apart may be missing. Identical values can stand only once.
How the values were obtained:
p34^cdc2/cyclin B (CDC2) = target: T1, p34^cdc2/cyclin B (CDC2) (Homo sapiens, UniProt P06493); test: CDK inhibition assay, p34cdc2/cyclin B kinase, histone H1 phosphorylation; assay type: biochemical
T1 construct: made in house; host or cells: Sf9 insect cells (baculovirus co-infection)
Method: (§1) Cyclin-dependent kinases (p34^cdc2, p33^cdk2) and cyclins (cyclin B, E) are produced in Sf9 insect cells coinfected with appropriate baculoviral constructs. The cells are harvested 68-72 hrs post infection in lysis buffer for 30 min on ice and the soluble fraction is recovered by centrifugation at 14.000 g for 10 min. The protein extract is stored at −80° C.
(§2) Lysis buffer: 50 mM Tris pH 7.4, 150 mM NaCl, 5 mM EDTA, 20 mM NaF, 1% Tween, 1 mM DTT, 0.1 mM PMSF, leupeptine, aprotonine.
(§3) To carry out experiments on kinetics under linear conditions, the final point test system for kinase activity measurement is used. The kinase is added to reaction mixture in such a way as to obtain linear activity with respect to the concentration of enzyme and with respect to time.
(§4) The p34^cdc2 and p33^cdk2 kinase inhibition determination involves the use of 1 mg/ml histone H1 (Sigma, type III-S) in the presence of 15 μM [γ-^32P]ATP ([…]) (Amersham) in a final volume of 20 μl. Kinase activity is determined at 30° C. in the kinase buffer.
(§5) Tested compounds are usually dissolved to 100 mM solutions in DMSO, final concentration of DMSO in reaction mixture never exceeds 1%. The controls contain suitable dilutions of DMSO.
(§6) After 10 min, addition 3×SDS sample buffer stops the incubations. Phosphorylated proteins are separated electrophoretically using 12.5% SDS polyacrylamide gel. The measurement of kinase activity is done using digital image analysis.
(§7) The kinase activity is expressed as a percentage of maximum activity, the apparent inhibition constants are determined by graphic analysis (FIG. 1).
(§8) Kinase buffer: 50 mM Hepes pH 7.4, 10 mM MgCl2, 5 mM EGTA, 10 mM 2-glycerolphosphate, 1 mM NaF, 1 mM DTT

IκB-α kinase = IκB-α kinase inhibitory activity, in vitro kinase assay; assay type: biochemical
MCF7 = test: In vitro cytotoxic activity, MTT assay, MCF7; assay type: cell-based; settings: Homo sapiens, 72 hours
Text: One of the parameters used, as the basis for colorimetric assays is the metabolic activity of viable cells. For example, a microtiter assay, which uses the tetrazolium salt MTT, is now widely used to quantitate cell proliferation and cytotoxicity. For instance, this assay is used in drug screening programs and in chemosensitivity testing. Because only metabolically active cells cleave tetrazolium salts, these assays detect viable cells exclusively. In the case of MTT assay, yellow soluble tetrazolium salt is reduced to coloured water-insoluble formazan salt. After it is solubilized, the formazan formed can easily and rapidly be quantified in a conventional ELISA plate reader at 570 nm (maximum absorbance). The quantity of reduced formazan corresponds to number of vital cells in the culture.
Human T-lymphoblastic leukemia cell line CEM; promyelocytic HL-60 and monocytic U937 leukemias; breast carcinoma cell lines MCF-7, BT549, MDA-MB-231; glioblastoma U87MG cells; cervical carcinoma cells HELA; sarcoma cells U2OS and Saos2; hepatocellular carcinoma HepG2; mouse immortalized bone marrow macrophages B2.4 and B10A.4; P388D1 and L1210 leukemia; B16 and B16F10 melanomas were used for routine screening of compounds. The cells were maintained in Nunc/Corning 80 cm^2 plastic tissue culture flasks and cultured in cell culture medium (DMEM with 5 g/l glucose, 2 mM glutamine, 100 U/ml penicillin, 100 μg/ml streptomycin, 10% fetal calf serum and sodium bicarbonate).
The cell suspensions that were prepared and diluted according to the particular cell type and the expected target cell density (2.500-30.000 cells per well based on cell growth characteristics) were added by pipette (80 μl) into 96/well microtiter plates. Inoculates were allowed a pre-incubation period of 24 hours at 37° C. and 5% CO2 for stabilisation. Four-fold dilutions of the intended test concentration were added at time zero in 20 μl aliquots to the microtiter plate wells. Usually, test compound was evaluated at six 4-fold dilutions. In routine testing, the highest well concentration was 266.7 μM, but it can be the matter of change dependent on the agent. All drug concentrations were examined in duplicates. Incubations of cells with the test compounds lasted for 72 hours at 37° C., in 5% CO2 atmosphere and 100% humidity. At the end of incubation period, the cells were assayed by using the MTT. Ten microliters of the MTT stock solution were pipetted into each well and incubated further for 1-4 hours. After this incubation period, formazan was solubilized by addition of 100 μl/well of 10% SDS in water (pH=5.5) followed by further incubation at 37° C. overnight. The optical density (OD) was measured at 540 nm with the Labsystem iEMS Reader MF (UK). The tumour cell survival (TCS) was calculated using the following equation: TCS=(ODdrug exposed well/mean ODcontrol wells)×100%. The IC50 value, the drug concentration lethal to 50% of the tumour cells, was calculated from the obtained dose response curves (FIG. 2).

K-562 = test: In vitro cytotoxic activity, MTT assay, K-562; assay type: cell-based; settings: Homo sapiens, K562, 72 hours
p33^cdk2 (cyclin E) = target: T2, p33^cdk2 (cyclin E) (Homo sapiens, UniProt P24941); test: CDK inhibition assay, p33cdk2 kinase, histone H1 phosphorylation; assay type: biochemical
T2 construct: made in house; host or cells: Sf9 insect cells (baculovirus co-infection)
Method: as §1, §2, §3, §4, §5, §6, §7, §8

CDK9 - cyclin T1 = CDK9 - cyclin T1 (Homo sapiens, UniProt P50750); test: CDK inhibitory activity, CDK9 - cyclin T1; assay type: biochemical
β-adrenergic receptors = test: Modulation of the activity of β-adrenergic receptors, isoproterenol-induced cAMP synthesis in C6 glioma; assay type: cell-based; settings: cAMP synthesis induced by 5 μM (−) isoproterenol, rat C6 glioma; for Effect: result in words; for IC50: read-out: I50
Method: Rat C6 glioma (ATCC N^o CCL107) was cultivated in monolayer in serum-free chemically defined medium containing Ham's F10/minimal essential medium (1:1 vol/vol), 2 mM L-glutamine, 1% (vol/vol) minimal essential medium vitamins (100×), 1% (vol/vol) minimal essential medium nonessential amino acids (100×), 100 U/ml penicillin, 100 μg/ml streptomycin and 30 nM sodium selenite. Incubation was at 37° C. in a humidified atmosphere. Assays were performed in the logarithmic growth phase at a density of 2.5×10^5 cells/cm^2. Intracellular cAMP synthesis was induced by addition of 5 μM (−) isoproterenol. After 30 min incubation at 37° C. the medium was removed and the cellular amount of cAMP determined using the cAMP-enzyme immunoassay kit of Amersham. The I50 is determined from a dose-response curve in duplicate (Table 7). The effect of seven 8-azapurine-analogs was measured after simultaneous addition with isoproterenol.
As P2Y1-like and A2 purinergic receptors, negatively and positively coupled to adenylate cyclase respectively, are present on rat C6 glioma it has to be determined if the modulation of the synthesis of cAMP is due to inhibition of the activation of β-adrenergic receptors by isoproterenol are due to activation of purinergic receptors.

T1 sequence (P06493 whole entry, species assumed): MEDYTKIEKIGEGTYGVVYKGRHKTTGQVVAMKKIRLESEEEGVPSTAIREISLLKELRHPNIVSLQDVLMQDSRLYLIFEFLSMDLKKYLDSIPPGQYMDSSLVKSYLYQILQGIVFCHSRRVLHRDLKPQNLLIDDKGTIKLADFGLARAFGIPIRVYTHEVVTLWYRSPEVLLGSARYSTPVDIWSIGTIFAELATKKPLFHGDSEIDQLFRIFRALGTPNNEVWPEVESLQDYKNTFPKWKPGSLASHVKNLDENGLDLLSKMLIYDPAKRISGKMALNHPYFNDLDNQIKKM
T1 sequence (P14635 whole entry partner, species assumed): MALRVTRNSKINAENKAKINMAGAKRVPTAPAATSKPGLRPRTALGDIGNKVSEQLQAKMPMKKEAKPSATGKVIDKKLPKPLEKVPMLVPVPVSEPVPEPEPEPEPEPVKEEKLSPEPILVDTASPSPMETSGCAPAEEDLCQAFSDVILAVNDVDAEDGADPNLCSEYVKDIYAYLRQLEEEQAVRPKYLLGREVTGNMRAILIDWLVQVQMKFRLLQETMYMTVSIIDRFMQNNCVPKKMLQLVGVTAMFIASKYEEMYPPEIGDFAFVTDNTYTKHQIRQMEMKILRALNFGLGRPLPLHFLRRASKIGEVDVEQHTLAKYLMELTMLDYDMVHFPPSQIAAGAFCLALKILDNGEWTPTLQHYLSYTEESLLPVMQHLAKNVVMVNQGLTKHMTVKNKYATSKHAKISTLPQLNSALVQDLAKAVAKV
Sequence of CDK9 - cyclin T1 (P50750 whole entry): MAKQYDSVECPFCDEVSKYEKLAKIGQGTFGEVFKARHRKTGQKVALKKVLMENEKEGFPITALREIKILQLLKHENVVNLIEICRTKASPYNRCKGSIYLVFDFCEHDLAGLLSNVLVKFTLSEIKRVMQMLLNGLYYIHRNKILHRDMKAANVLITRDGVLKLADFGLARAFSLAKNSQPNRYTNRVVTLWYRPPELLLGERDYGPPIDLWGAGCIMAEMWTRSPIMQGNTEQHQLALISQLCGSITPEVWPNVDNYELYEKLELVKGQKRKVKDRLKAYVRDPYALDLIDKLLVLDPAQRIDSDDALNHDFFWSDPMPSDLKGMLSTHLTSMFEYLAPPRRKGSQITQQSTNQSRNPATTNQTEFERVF
Sequence of CDK9 - cyclin T1 (O60563 whole entry partner): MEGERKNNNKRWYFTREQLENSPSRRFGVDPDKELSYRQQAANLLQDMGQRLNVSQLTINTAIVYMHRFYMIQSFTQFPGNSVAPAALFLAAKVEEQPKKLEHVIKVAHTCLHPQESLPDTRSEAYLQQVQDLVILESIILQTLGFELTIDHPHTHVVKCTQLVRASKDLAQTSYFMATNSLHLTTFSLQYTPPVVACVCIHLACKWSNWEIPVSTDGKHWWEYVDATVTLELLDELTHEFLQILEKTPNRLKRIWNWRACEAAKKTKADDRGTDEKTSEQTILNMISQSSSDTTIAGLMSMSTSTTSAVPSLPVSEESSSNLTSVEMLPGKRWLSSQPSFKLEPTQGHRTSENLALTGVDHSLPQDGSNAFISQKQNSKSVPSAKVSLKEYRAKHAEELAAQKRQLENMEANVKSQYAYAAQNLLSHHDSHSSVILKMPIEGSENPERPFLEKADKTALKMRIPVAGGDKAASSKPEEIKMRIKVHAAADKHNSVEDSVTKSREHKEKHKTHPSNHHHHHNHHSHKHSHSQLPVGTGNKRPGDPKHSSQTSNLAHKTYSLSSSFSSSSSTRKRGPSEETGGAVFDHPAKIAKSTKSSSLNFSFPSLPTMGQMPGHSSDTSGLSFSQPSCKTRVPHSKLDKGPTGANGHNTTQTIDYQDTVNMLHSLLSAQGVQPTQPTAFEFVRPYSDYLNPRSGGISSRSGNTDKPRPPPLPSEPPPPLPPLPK

Row | Structure (SMILES) | IC50 (p34^cdc2/cyclin B (CDC2)) [µM] | IC50 (IκB-α kinase) | IC50 (p33^cdk2 (cyclin E)) [µM] | IC50 (CDK9 - cyclin T1) [µM] | Effect (β-adrenergic receptors) | IC50 (β-adrenergic receptors) [µM] | IC50 (MCF7) [µM] | IC50 (K-562) [µM]
1 | CC(C)n1nnc2c(Nc3cccc(Cl)c3)nc(N(CCO)CCO)nc21 | 35 | > 100 µM |  |  |  |  | 100 | > 100
2 | CC(C)n1nnc2c(NCc3ccccc3)nc(NCCCO)nc21 |  |  | 54.6 | 29.2 |  |  |  | 
3 | CC(C)n1nnc2c(Nc3cccc(Cl)c3)nc(NC3CCCCC3N)nc21 (stereo not drawn) | 7 | > 100 µM |  |  |  |  | 8.9 | 12.2
4 | CC(=O)Oc1ccccc1CNc1nc(N[C@@H](CO)C(C)C)nc2c1nnn2C(C)C | 10 | 85 µM |  |  |  |  | 24.1 | 24
5 | CC[C@H](CO)Nc1nc(NCc2ccccc2)c2nnn(C(C)C)c2n1 |  |  | 23.2 | 11.5 |  |  |  | 
6 | CC(C)n1nnc2c(NCc3ccccc3O)nc(NC3CCC(N)CC3)nc21 (stereo not drawn) |  |  | 27.7 | 14.7 |  |  |  | 
7 | CCCCCCNc1nc(NC(CO)c2ccccc2)c2nnn(C(C)C)c2n1 (racemic) |  |  |  |  | inhibition | 12 ± 1 |  | 
8 | CC(C)n1nnc2c(NCc3ccc(O)cc3)nc(NC3CCC(N)CC3)nc21 (stereo not drawn) |  |  | > 10 | 1.4 |  |  |  | 
9 | COc1ccc(CNc2nc(NC3CCCCC3N)nc3c2nnn3C(C)C)cc1O (stereo not drawn) |  |  | 7 | 1.7 |  |  |  | 
10 | CC(C)n1nnc2c(Nc3cccc(Cl)c3)nc(NCCCO)nc21 |  | > 100 µM |  |  |  |  | > 100 | > 100
11 | CC(=O)c1ccccc1CNc1nc(N[C@@H](CO)C(C)C)nc2c1nnn2C(C)C | 25 | > 100 µM |  |  |  |  | 40.8 | 34.9
12 | CC(C)n1nnc2c(NCc3ccccc3O)nc(NC3CCC(O)CC3)nc21 (stereo not drawn) |  |  | > 10 | 9.9 |  |  |  | 
13 | CC(=O)Oc1cccc(CNc2nc(N[C@@H](CO)C(C)C)nc3c2nnn3C(C)C)c1 | 20 | > 100 µM |  |  |  |  | 28.2 | 31.7
14 | CC(C)n1nnc2c(Nc3cccc(Cl)c3)nc(NC3CCC(N)CC3)nc21 (stereo not drawn) |  |  | 3.1 | 1.1 |  |  |  | 
15 | CC[C@H](CO)Nc1nc(NCc2ccc(OC)c(O)c2)c2nnn(C(C)C)c2n1 |  |  | 6.4 | 2 |  |  |  | 
16 | CC(C)n1nnc2c(Nc3cccc(Cl)c3)nc(NCCO)nc21 |  | > 100 µM |  |  |  |  | > 100 | > 100
17 | CC(C)n1nnc2c(NCc3cccc(O)c3)nc(NC3CCC(N)CC3)nc21 (stereo not drawn) |  |  | > 10 | 1.7 |  |  |  | 
18 | CC(C)n1nnc2c(Nc3cccc(Cl)c3)nc(NCCCN)nc21 | > 100 | > 100 µM |  |  |  |  | 100 | > 100
19 | OC1CCC(Nc2nc(Nc3cccc(Cl)c3)c3nn[nH]c3n2)CC1 (stereo not drawn) |  |  | 0.1 | 8 |  |  |  | 
20 | CC(C)n1nnc2c(NCc3ccccc3)nc(NC3CCC(N)CC3)nc21 (stereo not drawn) | 3.7 | 48 µM |  |  |  |  |  | 
21 | CC(C)n1nnc2c(Nc3cccc(Cl)c3)nc(NCCN)nc21 | > 100 | > 100 µM |  |  |  |  | 100 | > 100
22 | CC(C)[C@H](CO)Nc1nc(NC(CO)c2ccccc2)c2nnn(C(C)C)c2n1 (mixture of isomers) | 50 | > 100 µM |  |  |  |  |  | 

Continued, in another order:

Row | IC50 (p34^cdc2/cyclin B (CDC2)) [µM] | IC50 (IκB-α kinase) | IC50 (p33^cdk2 (cyclin E)) [µM] | IC50 (CDK9 - cyclin T1) [µM] | Effect (β-adrenergic receptors) | IC50 (β-adrenergic receptors) [µM] | Structure (SMILES) | IC50 (MCF7) [µM] | IC50 (K-562) [µM]
23 | 40 | > 100 µM |  |  |  |  | CC(=O)c1cccc(CNc2nc(N[C@@H](CO)C(C)C)nc3c2nnn3C(C)C)c1 | 47.6 | 50.6
24 | 30 | 80 µM |  |  |  |  | CC(C)[C@H](CO)Nc1nc(Nc2ccc(Cl)c(C(=O)O)c2)c2nnn(C(C)C)c2n1 | 21 | 42
25 | 35 | > 100 µM |  |  |  |  | CC(C)[C@H](CO)Nc1nc(Nc2ccc(Br)cc2)c2nnn(C(C)C)c2n1 | 64 | 75
26 | 35 | 90 µM |  |  |  |  | CC(C)[C@H](CO)Nc1nc(Nc2ccc(Cl)cc2)c2nnn(C(C)C)c2n1 | 17.6 | 19.4
27 | 35 | > 100 µM and 80 µM |  |  |  |  | CC[C@H](CO)Nc1nc(Nc2cccc(Cl)c2)c2nnn(C(C)C)c2n1 | > 100 | > 100
28 | 34 | > 100 µM |  |  |  |  | CC(C)[C@H](CO)Nc1nc(Nc2ccc(O)c(C(=O)O)c2)c2nnn(C(C)C)c2n1 | 24 | 28
29 |  |  | 6.9 | 2.5 |  |  | CC(C)C(CO)Nc1nc(NCc2ccccc2O)c2nnn(C(C)C)c2n1 (stereo not drawn) |  | 
30 | 8 | 80 µM |  |  |  |  | CC(C)[C@H](CO)Nc1nc(NCc2cccc(O)c2)c2nnn(C(C)C)c2n1 | 18 | 17.5
31 | 40 | > 100 µM |  |  |  |  | CC(C)[C@H](CO)Nc1nc(Nc2ccc(N)c(Cl)c2)c2nnn(C(C)C)c2n1 | 22.5 | 28.9
32 | 40 |  |  |  |  |  | CC(C)[C@H](CO)Nc1nc(Nc2ccccc2)c2nnn(C(C)C)c2n1 | 80 | 100
33 | 20 | 80 µM |  |  |  |  | CC(C)[C@H](CO)Nc1nc(Nc2cccc(Cl)c2)c2nnn(C(C)C)c2n1 | 80 | 96
34 |  |  |  |  | inhibition | 32 ± 2 | CC(C)C(CO)Nc1nc(NCc2ccccc2)c2nnn(C(C)C)c2n1 (stereo not drawn) |  | 
35 | 24 |  |  |  |  |  | CC(C)[C@H](CO)Nc1nc(Nc2ccc(Cl)c(N)c2)c2nnn(C(C)C)c2n1 | 16.4 | 18.8
36 | 7 | > 100 µM |  |  |  |  | CC(C)[C@H](CO)Nc1nc(NCc2ccccc2O)c2nnn(C(C)C)c2n1 | 24 | 25
37 | 55 | > 100 µM |  |  |  |  | COc1cccc(CNc2nc(N[C@@H](CO)C(C)C)nc3c2nnn3C(C)C)c1O |  | 
38 | 32 | 60 µM |  |  |  |  | CC(C)[C@H](CO)Nc1nc(NCc2cccc(Cl)c2O)c2nnn(C(C)C)c2n1 |  | 
